Experiments:
nitroreductase = nitroreductase (Escherichia coli, UniProt P38489); conditions: substrate for nitroreductase; due to permeability of the cytotoxic metabolite (Bridgewater et al., 1997; Wilson et al., 2002); cited from earlier work
zebrafish = conditions: in vivo; cited from earlier work
[1] = tested on: unc-CFP-Nitro expressing cells; assay: nitroreductase-based pro-drug conversion and cellular ablation in transient transgenic zebrafish embryos; type: in vivo; conditions: metronidazole 10 mM, 5 mM, 2.5 mM in embryo medium; treated from 62 hpf, imaged at 118 hpf; untreated embryos keep both reporters
Method: In order to determine the efficacy of nitroreductase-based pro-drug conversion and subsequent cellular ablation in transient transgenic zebrafish the following experiment was performed: Male and female zebrafish from a ‘transparent’ strain (e.g., harboring the roy mutation) were allowed to mate over egg collection chambers at light onset. Fertilized eggs were collected every 15 minutes and placed in petri dishes containing embryo medium (0.3X Danieau's solution containing 100 units/ml penicillin and 100 μg/ml streptomycin). Eggs were dispensed into a silicone chambers and oriented such that the cell side was facing up. For injections, DNA plasmids were diluted into 1X Danieau's solution to a final concentration of 10 ng/μl. DNA plasmids used for this experiment included: 1) An alpha-1-tubulin promoter driving expression of a Gal4/VP 16 “driver” protein (α-1-tub::Gal4/VP16); 2) A UAS regulated red control fluorescent reporter protein (UAS::DsRed) and; 3) A UAS regulated cyan fluorescent reporter protein (unc-CFP) fused to nitroreductase (UAS::unc-CFP-Nitro, see FIG. 2 and FIG. 3). […] At 28 hpf, injected embryos were screened for equivalent expression of the DsRed reporter (control cells) and the unc-CFP-Nitro ablation/reporter (targeted cells) using standard fluorescence microscopy. […]

Chain of nitroreductase (P38489 whole entry): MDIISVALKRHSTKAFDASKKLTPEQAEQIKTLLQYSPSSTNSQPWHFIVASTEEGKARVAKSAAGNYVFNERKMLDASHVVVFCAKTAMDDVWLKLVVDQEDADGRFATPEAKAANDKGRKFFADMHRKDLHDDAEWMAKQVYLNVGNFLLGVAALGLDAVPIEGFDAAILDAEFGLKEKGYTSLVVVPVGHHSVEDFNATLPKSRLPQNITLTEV

For `NC(=O)c1cc(N2CC2)c([N+](=O)[O-])cc1[N+](=O)[O-]` [CE 1954, 5-(aziridin-1-yl)-2,4-dinitrobenzamide], the bystander effect (nitroreductase) is given as “specifically promote the bystander effect”.
For `Cc1ncc([N+](=O)[O-])n1CCO` [metronidazole], the general toxicity (zebrafish) is given as “no general toxicity” and the “ablation of reporter-expressing cells (confocal imaging of unc-CFP-Nitro vs DsRed control reporter)” value [1] is given as “selective elimination of unc-CFP-Nitro expressing cells”.
